Assay results: US6288113A, “Angiogenesis promoters” (Welfide Corporation, priority 1997, dated 2001)

Legend:
Format in all cases: in vivo
angiogenesis by b-FGF [1] = assay: Rat sponge model with b-FGF, observation of photograph of sponge surface (Experimental Example 2)
Procedure: (§1) In the same manner as in Experimental Example 1, as the promoter of the present invention, the AS-containing lipid emulsion of Example 4 was diluted with a 10% lipid emulsion (Intralipos®, manufactured by the Green Cross Corporation, produced and sold by Yoshitomi Pharmaceutical Industries, Ltd. since Apr. 1, 1998) and used. For the vehicle administration control group, the above-mentioned 10% lipid emulsion alone was used.
(§2) Using a hemostatic gelatin sponge infiltrated with physiological saline containing 0.1% BSA (bovine serum albumin) or b-FGF solution (b-FGF 1 mg/ml solution, 100 μl, diluted 10-fold with physiological saline containing 0.1% BSA), and in the same manner as in Experimental Example 1, rat sponge models (6-8 animals per group) were prepared. The vehicle and AS were bolus administered via the tail vein once a day at the volume of 1 ml/kg from the day of sponge implanting to day 4. After 4 days from the implanting, the surface of the sponge was photographed, and the amount of the hemoglobin in the sponge was calculated in the same manner as in Experimental Example 1.

angiogenesis by b-FGF [2] = assay: Rat sponge model with b-FGF, hemoglobin content of sponge (Experimental Example 2); details: for Hemoglobin in sponge at 4 days after implanting: mean ± standard error
Procedure: as §1, §2
For the evaluation of the angiogenic effect, a multiple comparison test (group 1 versus groups 2, 3) by Dunnett method was performed to examine significant difference, using the vehicle alone administration group (BSA-containing physiological saline in sponge +10% lipid emulsion intravenous injection) as a control. For the evaluation of the relationship between AS and b-FGF, an unpaired t-test (group 2 versus group 3) was performed using the b-FGF alone administration group as a control to examine significant difference. The significance was ascribed at less than 5% risk rate.

angiogenesis [3] = assay: Rat sponge model, hemoglobin content of sponge (Experimental Example 1)
Procedure: as §1, with “As” for “In the same manner as in Experimental Example 1, as”, “April” for “Apr.”
(§3) Rats were anesthetized and the dorsal median line was incised for about 1 cm and an air pocket was made subcutaneously at about 2.5 cm toward the tail side with a Kocher clamp. A hemostatic gelatin sponge (Spongel®, 1.0×1.0×0.5 cm; manufactured by Yamanouchi Pharmaceutical Co., Ltd.) infiltrated with physiological saline was implanted therein to prepare rat sponge models.
(§4) The incisive region was sutured, antisepticized and intramulscular injection of an antibiotic was given, after which the rats were returned to the breeding cages. Each preparation was bolus administered via the tail vein once a day from the day of sponge implanting to day 4. After 4 days from the implanting, 8 rats per group were sacrificed. The back was opened, and the surrounding tissue was removed trying not to damage the implanted sponge and the surface of the sponge was photographed. All the sponges were taken out and a 0.1M aqueous ammonia (2 ml) was added. The sponges were stood for 4 hr to extract hemoglobin in the sponge. Hemoglobin in the extract (100 μl) was quantitated using an assay kit (hemoglobin B-TESTWAKO; manufactured by Wako Pure Chemical Industries, Ltd.). The amount of the hemoglobin in the sponge was calculated and used as the index of angiogenesis.
For the evaluation of the angiogenic effect, a multiple comparison test by Dunnett method was performed to examine significant difference, using the vehicle administration group as a control. The significance was ascribed at less than 5% risk rate.

angiogenesis [4] = assay: Rat sponge model, observation of photograph of sponge surface (Experimental Example 1); details: AS administration group; after 4 days; visual observation
Procedure: as §1, with “As” for “In the same manner as in Experimental Example 1, as”, “April” for “Apr.”
as §3
as §4, with “The back was opened, and the surrounding tissue was removed trying not to damage the implanted sponge and the surface of the sponge was photographed. All the sponges were taken out and a 0.1M aqueous ammonia (2 ml) was added. The sponges were stood for 4 hr to extract hemoglobin in the sponge.” left out

Molecule | blood vessels on sponge surface (FIG. 4) (angiogenesis by b-FGF [1]; b-FGF administration group (group 2)) | hemoglobin content of sponge (angiogenesis by b-FGF [2]; b-FGF alone administration group, after 4 days, result in words) | Hemoglobin in sponge at 4 days after implanting (angiogenesis by b-FGF [2]; group 2: b-FGF 1 μg/sponge, 10% lipid emulsion i.v. 1 ml/kg, n 8, vehicle alone 6.5 ± 0.7) [mg/sponge] | blood vessels on sponge surface (FIG. 5) (angiogenesis by b-FGF [1]; AS and b-FGF co-administration group (group 3)) | angiogenesis promoting effect by b-FGF (angiogenesis by b-FGF [2]; AS and b-FGF co-administered, summary) | hemoglobin content of sponge as compared with the b-FGF alone administration group (angiogenesis by b-FGF [2]; AS and b-FGF co-administration group, result in words) | Hemoglobin in sponge at 4 days after implanting (angiogenesis by b-FGF [2]; group 3: AS 3 μg/kg i.v. with b-FGF 1 μg/sponge, n 7, P < 0.05 vs b-FGF alone (unpaired t-test)) [mg/sponge] | Hemoglobin in sponge at 4 days after implanting (angiogenesis [3]; AS 3 μg/kg i.v. bolus via tail vein once a day to day 4, mean ± standard error, P < 0.05 vs vehicle 1.5 ± 0.9 (Dunnett)) [mg/sponge] | hemoglobin content compared with the vehicle administration group (angiogenesis [3]; AS 3 μg/kg i.v. bolus, consecutive, result in words) | promotion of angiogenesis (angiogenesis [3]; summary of hemoglobin content and photograph observation, Experimental Example 1) | blood vessels on sponge surface (FIG. 2) (angiogenesis [4])
b-FGF: growth factor, basic fibloblast growth factor | a number of blood vessels were observed on the surface of the sponge, showing formation of a blood vessel network | increased | 11.8 ± 0.9 |  |  |  |  |  |  |  | 
CCCCC[C@H](O)/C=C/[C@@H]1C(CCCCCCC(=O)OCCCC)=C(OC(=O)CCC)C[C@H]1O [AS, butyl 9-butyryloxy-11α,15S-dihydroxyprosta-8,13E-dien-1-oate] |  |  |  | more noticeable formation of a blood vessel network was observed, with larger blood vessel diameters | potentiated | increased significantly | 20.7 ± 3.1 | 4.4 ± 0.8 | increased the hemoglobin content compared with the vehicle administration group and a significant difference was observed | promoted angiogenesis | a noticeable blood vessel network that allows visual observation was found, showing superior angiogenesis
